Test results from patent US20070049538A1, “METHODS FOR USING CUCURBITACIN COMPOUNDS” (SOUTH DAKOTA STATE UNIVERSITY, priority 2005, published 2007).

Key:
HepG2 cells [1] = test: Cucurbitacins cytotoxicity on HepG2 cells (MTT viability assay); format: cell-based, human
Description: HepG2 (human hepatocellular carcinoma, ATCC) cells were grown in EMEM (Gibco, Grand Island, N.Y.) supplemented with 10% fetal bovine serum (FBS), and 1% penicillin/fungizone mixture (Gibco). Thabrew's optimized procedure (Thabrew et al., J. Pharm. Pharmcol. 49 (1994) 1442, the entire disclosure of which is herein incorporated by reference) was followed. Cells were batch cultured for 10 days, then seeded at concentration of 30,000 cells/well in fresh media in 96-well microtiter plastic plates at 37° C. for a day. Then cells were exposed to different concentrations of cucurbitacins at final volume of 100 μl/well. Five-fold serial dilution of compounds was carried out in the plate for five consecutive wells. After 24 h of incubation with chemicals, live cells were visualized using the MTT viability assay (Promega, Madison, Wis.). The absorbance was measured at 570 nm. Negative (without cells) and positive (without test chemicals) controls were also incubated with each plate. […] At least three reproducible experiments were performed per compound with three replicate wells per concentration.
Cells were challenged with cu-curbitacins at various concentrations for a day and then live cells quantified with MTT dye. This period of time measures exclusively compounds cytotoxicity, while longer incubation time may lead to interference from metabolites.

[2] = Chromatographic hydrophobicity index (CHI) by RP-HPLC in buffered acetonitrile; format: physicochemical; set-up: key: CHI = φ0 (isocratic hydrophobicity index), = A·tR + B; ACN % scale; details: for CHIACN1: buffered acetonitrile pH 7.0, Alltima C18 250 mm, Eq. (2) from isocratic φ0; for CHIACN2: buffered acetonitrile pH 7.0, Eq. (3) calibrated against published CHI
Description: (§1) We used Dynamax liquid chromatograph (Varian Chromatography Systems) with PDA-2 photodiode array UV detector, controlled by the Dynamax PC Chromatography Data System (v. 1.9) software and Dynamax dual pump solvent delivery system, model SD-200. […] Cucurbitacins analytical separation was optimized on Alltima C18 (Alltech; 250 mm×4.6 mm, 5 μm) HPLC column, at gradient elution in acetonitrile (ACN, 30-70% ACN in 57 min), and in MeOH (60-75% MeOH in 50 min). Cucurbitacins stock concentration of 10^−2M in DMSO:ethanol (1:1) was standardized against pure cucurbitacin I (Indofine Chemical Company, Hillsborough, N.J.) by analytical HPLC means. Compounds CHI was measured in both ACN, by using Alltima C18 column, and in MeOH, by using Econosil C18 column (Alltech; 150 mm×4.6 mm, 5 μm). Analytical separations were conducted at a flow rate of 1 ml/min. The aqueous phase was buffered for the CHI measurement. For this purpose, solid ammonium acetate (Fisher Sci. Co., Fair Lawn, N.J.) was dissolved in deionized distilled water at 50 mM final concentration and its pH adjusted to 7.0.
All standard compounds were purchased from Acros (Acros Organics, NJ). The chromatographic lipophilicity or hydrophobicity was determined applying Valkó's technique (Valkó et al., Anal. Chem. 69 (1997) 2022, the entire disclosure of which is herein incorporated by reference). A standard mixture of seven compounds was prepared in solution: theophylline (compound 19), benzimidazole (compound 20), acetophenone (compound 21), indole (compound 22), propiophenone (compound 23), butyrophenone (compound 24), and valerophenone (compound 25). […] The retention factor, log k=log((tR-t0)/t0), was calculated for each analyte from five good injections of […] sample. The dead time (t0) was measured by injecting NaNO3 together with the sample. Then, the log k values were plotted against isocratic ACN concentrations to establish the linear regression equations for each analyte. From each straight line the isocratic hydrophobicity index was computed, φ0=(intercept/slope). Further, the calibration mixture was injected at fast gradient elution, 0-22 min 0-100% ACN, and three additional minutes at 100% ACN. The φ0 values for the test compounds were plotted against gradient retention time and the linear equation determined from the following equation: φ0=CHI=AtR+B (1)
The gradient elution conditions were similar to the one from the first approach.
(§2) Cucurbitacins lipophilicity was measured by RP-HPLC. […] Due to its high viscosity, aqueous MeOH required a shorter column than the one applied for ACN. First, the C18 columns were calibrated against a standard mixture, and the relationships established between the fast gradient tR and φ0 or published CHI (see Eqs. (2)-(4) from Table 2). Second, cucurbitacins were injected at fast gradient elution under similar conditions, and their CHI calculated (Table 4) from Eqs. (2)-(4). Eqs.

[3] = Chromatographic hydrophobicity index (CHI) by RP-HPLC in buffered methanol; format: physicochemical; details: for CHIMeOH: buffered methanol pH 7.0, Econosil C18 150 mm, Eq. (4); for CHIMeOH (b): standard compounds, isochratic and gradient elution of standard mixture
Description: as §1
A standard mixture of 10 compounds including 19-21, 23-27, aniline (compound 28) and bromobenzene (compound 29), dissolved in MeOH, was injected at five isochratic elution, at 40, 45, 50, 55, and 60% MeOH. Then the mixture was injected at fast gradient elution to establish the correlation from Eq. (1). The fast linear gradient elution was optimized for 30-100% MeOH in aqueous buffer with 10 min runtime.
as §2

HSC-T6 cells [4] = test: Serum-driven HSC-T6 proliferation, experiment 1 (4 h challenge, two days drug-free growth); format: cell-based, rat; details: for EC50: HSC-T6, 4 h challenge, then two days drug-free media
Description: The proliferation effect of serum on HSC-T6 cells was optimized and cucurbitacin antiproliferative activity was measured. Serum contains a large number of growth factors, hormones and other nutrients, which help cells to grow and multiply. Several trials were conducted. In experiment 1, cells were challenged with cucurbitacin analogs for 4 h and then cells were grown in drug-free media for two additional days.
HSC-T6 cells were photographed under phase-contrast microscope to record possible changes in cell morphology during experiment 1. […] We are monitoring specifically the effect of compound on the cells, cell recovery after 4 h challenge, and relative cell proliferation. […] Live cells are quantified at the end of the assay (row 4) with MTT dye.
(§3) We established several experimental conditions such as 4 hours of incubation time with cucurbitacin, and 2 day cell incubation with fresh media after challenging with cucurbitacin (Exp. 1). Other experiments involved addition of cucurbitacin for 24 hours over starved cells (Exp. 2) vs. proliferating cells (Exp. 3), and one day incubation of cells with fresh media after challenge. […] Because of that, the challenge time was increased to 24 hours (Exp. 2 and 3).
We modified this approach. Our assay included a second control (ZC) supplemented with no serum intended to measure cucurbitacin anti-proliferation effect relative to the number of cells generated during challenge instead of the total number of cells present in each well.

HSC-T6 cells [5] = test: Serum-driven HSC-T6 proliferation, experiment 3 (24 h, proliferating cells); format: cell-based, rat; details: HSC-T6, 24 h, proliferating cells; read-out: Experiment 3 EC50 (A)
Description: To overcome this problem, the amount of incubation time was increased to 24 h, and cucurbitacin activity measured on starved (Exp. 2) or proliferative (Exp. 3) cells (Table 8). Cells turned quiescent when serum was not supplemented for one day (Exp. 2). Activity of a few compounds was monitored on quiescent cells, and their activity compared to the ones measured on proliferating cells (Exp. 3).
as §3, with “challenge. The 4 hour incubation period with cucurbitacin triggered anti-proliferation effect. This effect, however, was hindered by a second cycle of cell proliferation during the two-day cell growth period (see silybin, E and I glucosides, and for I-nPr).” for “challenge.”
In experiment 3, only 40% of the cells divided. The ratio of EC50 values for exp. 2 and exp. 3 varied between 3.6 and 12.7. This may indicate differential cytotoxicity of silybin and cucurbitacin analogs over quiescent and active stellate cells. In other words, compounds show higher anti-proliferative activity on active cells than on quiescent cells.

HSC-T6 cells [6] = test: Cytotoxicity on HSC-T6 cells (experiment 3); format: cell-based, rat; details: read-out: Experiment 3 IC50 (T)
From the text: Cytotoxicity of all cucurbitacin analogs was additionally measured in experiment 3 (Table 8).

HepG2 cells [7] = test: cells; details: for EC50: read-out: EC50 cytoprotection, Table 7, HepG2 against CCl4 toxicity, estimated
From the text: Experimental conditions were standardized on silybin. […]
The ratio of IC50-to-EC50 (hereafter T/A) is also indicated in this table, which gives the margin between toxic and cytoprotective concentrations.

[8] = standard compounds; gradient elution and correlation with published data; cited from earlier work

Compound | IC50 (HepG2 cells [1]; Table 4, 24 h incubation, MTT) [µM] | IC50 (HepG2 cells [1]; Table 5) [µM] | CHIACN1 [2] | CHIACN2 [2] | CHIMeOH [3] | EC50 (HSC-T6 cells [4]) [µM] | EC50 (HSC-T6 cells [5]) [µM] | IC50 (HSC-T6 cells [6]) [µM] | IC50 (HepG2 cells [1]; Table 7) [µM] | cytoprotection on HepG2 cells (HepG2 cells [7]; at 6.25% of IC50, against CCl4) | cytoprotection on HepG2 cells (HepG2 cells [7]; at 12.5% of IC50, against CCl4) | cytoprotection on HepG2 cells (HepG2 cells [7]; at 20% of IC50, against CCl4) | cytoprotection on HepG2 cells (HepG2 cells [7]; at 50% of IC50, against CCl4) | EC50 (HepG2 cells [7]) [µM] | CHIMeOH (b) [3] | CHIACN (c) [8] | CHIACN (b) ([2]; standard compounds, isochratic and gradient elution of standard mixture) | Experiment 1 anti-proliferation activity (HSC-T6 cells [4]; measured at 2-6 μM) | Experiment 1 anti-proliferation activity (HSC-T6 cells [4]; measured at 100 μM)
CCOC1=CC2C(=CCC3C2(C)C(=O)CC2(C)C(C(C)(O)C(=O)C=CC(C)(C)OC(C)=O)C(O)CC32C)C(C)(C)C1=O (stereo not shown) [E-Et] | 5.1 | 5.1 ± 0.9 | 82.76 | 93.73 | 74.25 | 5.6 | 0.27 | 3.5 |  |  |  |  |  |  |  |  |  |  | 
CC(C)(O)/C=C/C(=O)[C@](C)(O)[C@H]1[C@H](O)C[C@@]2(C)[C@@H]3CC=C4[C@@H](C=C(O)C(=O)C4(C)C)[C@]3(C)C(=O)C[C@]12C [I, cucurbitacin I] | 15.8 | 15.8 ± 6.7 | 63.27 | 63.53 | 63.86 | 0.36 | 0.02 | 3.6 | 15.8 | 4.55 ± 0.64 | 17.50 ± 1.32 | 50.09 ± 1.02 | 54.75 ± 0.29 | 3.2 |  |  |  |  | 
CCCOC1=CC2C(=CCC3C2(C)C(=O)CC2(C)C(C(C)(O)C(=O)C=CC(C)(C)OC(C)=O)C(O)CC32C)C(C)(C)C1=O (stereo not shown) [E-nPr] |  |  | 88.34 | 102.37 | 77.66 | 2.28 | 0.34 | 2.8 |  |  |  |  |  |  |  |  |  |  | 
Nc1ccccc1 [Aniline (28), aniline, reference compound] |  |  |  |  |  |  |  |  |  |  |  |  |  |  | 29.94 ± 0.05 |  |  |  | 
COc1cc2c(c(OC)c1OC)-c1ccc(OC)c(=O)cc1[C@@H](NC(C)=O)CC2 [Colchicine (26), colchicine, reference compound] |  |  |  |  |  |  |  |  |  |  |  |  |  |  | 57.56 + 0.04 | 41.37 |  |  | 
CC(=O)OC(C)(C)C=CC(=O)C(C)(O)C1C(O)CC2(C)C3CC=C4C(C=C(OC(C)C)C(=O)C4(C)C)C3(C)C(=O)CC12C (stereo not shown) [E-iPr] | 4.3 | 4.3 ± 0.5 | 86.84 | 100.04 | 76.30 | 2.13 | 0.32 | 2.5 |  | −0.60 ± 1.11 | −7.81 ± 0.68 | −7.00 ± 0.17 | −32.99 ± 1.70 |  |  |  |  |  | 
c1ccc2[nH]ccc2c1 [Indole (22), indole, reference compound] |  |  |  |  |  |  |  |  |  |  |  |  |  |  |  | 69.15 | 67.73 + 0.13 |  | 
CCCOC1=CC2C(=CCC3C2(C)C(=O)CC2(C)C(C(C)(O)C(=O)C=CC(C)(C)O)C(O)CC32C)C(C)(C)C1=O (stereo not shown) [I-nPr] | 5 | 5 ± 0.5 | 75.92 | 83.13 | 72.88 |  | 0.33 | 2.5 |  |  |  |  |  |  |  |  |  | ˜18%^b^ | 
CC(C)(O)/C=C/C(=O)[C@](C)(O)C1[C@H](O)C[C@@]2(C)C3CC=C4C(C=C(O[C@@H]5O[C@H](CO)[C@@H](O)[C@H](O)[C@H]5O)C(=O)C4(C)C)[C@]3(C)C(=O)C[C@]12C (stereo partly shown) [I-Gluc, cucurbitacin I glucoside] | 390 ± 10 | 390 ± 10 | 46.48 | 37.50 | 56.41 |  | 4.15 | 256 |  |  |  |  |  |  |  |  |  |  | ˜20%^a^
CC(C)OC1=CC2C(=CCC3C2(C)C(=O)CC2(C)C(C(C)(O)C(=O)C=CC(C)(C)O)C(O)CC32C)C(C)(C)C1=O (stereo not shown) [I-iPr] | 7 ± 1 | 7.3 ± 0.6 | 73.87 | 79.94 | 71.55 | 3.85 | 0.25 | 2.5 |  | −17.10 ± 1.54 | 4.15 ± 0.48 | 18.69 ± 0.13 | 41.73 ± 2.06 |  |  |  |  |  | 
CC(C)(O)/C=C/C(=O)C(C)(O)C1C(O)CC2(C)C3CC=C4C(CC(=O)C(O)C4(C)C)C3(C)C(=O)CC12C (stereo not shown) [iso-D] | 80.3 | 80.3 ± 3.5 | 60.59 | 59.37 | 62.27 | 2.13 | 0.06 | 8.7 | 80.3 |  |  |  |  | 13.8 |  |  |  |  | 
Cn1c(=O)c2nc(-c3ccccc3)[nH]c2n(C)c1=O [Ph-theophylline (27), phenyltheophylline, reference compound] |  |  |  |  |  |  |  |  |  |  |  |  |  |  | 61.61 ± 0.04 | 52.04 |  |  | 
